Assay results from ChEMBL document CHEMBL4825772, “Protein Degradation Inducers of Androgen Receptor by Conjugation of Antagonists Androgen Receptor and E3 Ligase Ligand” (ACS Med Chem Lett, 2021).

Biological target: Protein cereblon/Androgen receptor (Homo sapiens, UniProt P10275+Q96SW2)
Test: Protac activity at E3 ubiquitin ligase/androgen receptor in human LNCaP cells assessed as induction of androgen receptor degradation incubated for overnight by sandwich ELISA
Type: cell-based

Sequence of Protein cereblon/Androgen receptor (P10275 whole entry): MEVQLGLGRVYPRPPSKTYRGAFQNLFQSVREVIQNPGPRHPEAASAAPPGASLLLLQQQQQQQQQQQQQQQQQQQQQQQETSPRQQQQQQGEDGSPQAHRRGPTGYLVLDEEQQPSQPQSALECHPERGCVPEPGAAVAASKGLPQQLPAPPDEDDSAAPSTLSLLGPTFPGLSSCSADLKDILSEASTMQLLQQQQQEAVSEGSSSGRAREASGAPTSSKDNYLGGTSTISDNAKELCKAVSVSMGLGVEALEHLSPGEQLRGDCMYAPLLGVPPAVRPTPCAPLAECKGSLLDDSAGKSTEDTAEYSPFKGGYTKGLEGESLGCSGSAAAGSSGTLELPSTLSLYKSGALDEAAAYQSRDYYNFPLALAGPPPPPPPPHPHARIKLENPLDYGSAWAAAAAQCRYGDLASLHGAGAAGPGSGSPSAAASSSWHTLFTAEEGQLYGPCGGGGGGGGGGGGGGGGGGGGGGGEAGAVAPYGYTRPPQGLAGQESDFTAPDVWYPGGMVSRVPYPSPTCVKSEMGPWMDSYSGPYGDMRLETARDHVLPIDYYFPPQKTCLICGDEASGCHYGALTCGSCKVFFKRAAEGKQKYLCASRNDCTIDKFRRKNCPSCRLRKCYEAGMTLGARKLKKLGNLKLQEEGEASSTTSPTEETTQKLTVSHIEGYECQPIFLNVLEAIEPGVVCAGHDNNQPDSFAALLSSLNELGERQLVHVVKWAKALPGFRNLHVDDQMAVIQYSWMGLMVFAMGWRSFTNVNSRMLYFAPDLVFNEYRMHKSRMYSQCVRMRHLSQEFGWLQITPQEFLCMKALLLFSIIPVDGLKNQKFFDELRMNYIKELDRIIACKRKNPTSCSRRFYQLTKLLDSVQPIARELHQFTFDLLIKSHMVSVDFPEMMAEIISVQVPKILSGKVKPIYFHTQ
Sequence of Protein cereblon/Androgen receptor (Q96SW2 whole entry): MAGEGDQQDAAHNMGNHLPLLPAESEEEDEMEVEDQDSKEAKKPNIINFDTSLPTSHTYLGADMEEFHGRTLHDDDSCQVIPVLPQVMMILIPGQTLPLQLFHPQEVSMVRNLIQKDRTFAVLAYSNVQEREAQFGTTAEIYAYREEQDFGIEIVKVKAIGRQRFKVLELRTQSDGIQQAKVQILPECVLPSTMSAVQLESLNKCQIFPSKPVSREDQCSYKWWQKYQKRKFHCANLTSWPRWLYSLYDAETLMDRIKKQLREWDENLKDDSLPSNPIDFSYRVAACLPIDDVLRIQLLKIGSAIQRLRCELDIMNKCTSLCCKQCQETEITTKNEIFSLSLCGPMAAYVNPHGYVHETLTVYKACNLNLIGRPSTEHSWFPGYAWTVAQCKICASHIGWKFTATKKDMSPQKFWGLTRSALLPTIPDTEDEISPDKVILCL

Row | Structure (SMILES) | DC50 [nM]
1 | C[C@@H]1CN(c2ccc3c(c2)C(=O)N(C2CCC(=O)NC2=O)C3=O)CCN1C[C@H]1CC[C@H](NC(=O)c2ccc(Nc3ncnc4c3CCN(c3ccc(C#N)c(Cl)c3)C4)nc2F)CC1 (some centres not stated) | 5.3
2 | N#Cc1ccc(N2CCc3c(ncnc3Nc3ccc(C(=O)N[C@H]4CC[C@H](CN5CCN(c6cc7c(cc6F)C(=O)N(C6CCC(=O)NC6=O)C7=O)CC5)CC4)c(F)n3)C2)cc1Cl (some centres not stated) | 9.2
3 | N#Cc1ccc(N2CCc3c(ncnc3Nc3ccc(C(=O)NCCC(=O)N4CCC(CN5CCN(c6cc7c(cc6F)C(=O)N(C6CCC(=O)NC6=O)C7=O)CC5)CC4)c(F)n3)C2)cc1Cl (configuration not stated) | 7.7
4 | N#Cc1ccc(N2CCc3c(ncnc3Nc3ccc(C(=O)NCCCCCCN4CCN(c5ccc6c(c5)C(=O)N(C5CCC(=O)NC5=O)C6=O)CC4)c(F)n3)C2)cc1Cl (configuration not stated) | 3
5 | C[C@H]1CN(c2ccc3c(c2)C(=O)N(C2CCC(=O)NC2=O)C3=O)CCN1C[C@H]1CC[C@H](NC(=O)c2ccc(Nc3ncnc4c3CCN(c3ccc(C#N)c(Cl)c3)C4)nc2F)CC1 (some centres not stated) | 9.1
6 | N#Cc1ccc(N2CCc3c(ncnc3Nc3ccc(C(=O)NC4CCN(C5CCN(c6ccc7c(c6)C(=O)N(C6CCC(=O)NC6=O)C7=O)CC5)CC4)c(F)n3)C2)cc1Cl (configuration not stated) | 4.9
7 | CN(C1CCN(C(=O)c2ccc(Nc3ncnc4c3CCN(c3ccc(C#N)c(Cl)c3)C4)nc2F)CC1)C1CCN(c2cc3c(cc2F)C(=O)N(C2CCC(=O)NC2=O)C3=O)CC1 (configuration not stated) | 16.6
8 | N#Cc1ccc(N2CCc3c(ncnc3Nc3ccc(C(=O)NCC(=O)N4CCC(CN5CCN(c6cc7c(cc6F)C(=O)N(C6CCC(=O)NC6=O)C7=O)CC5)CC4)c(F)n3)C2)cc1Cl (configuration not stated) | 2.8

Second part, the compound after the results:

Row | DC50 [nM] | Structure (SMILES)
9 | 3.2 | N#Cc1ccc(N2CCc3c(ncnc3Nc3ccc(C(=O)N4CCC(CN5CCN(c6ccc7c(c6)C(=O)N(C6CCC(=O)NC6=O)C7=O)CC5)CC4)c(F)n3)C2)cc1Cl (configuration not stated)
10 | 8.5 | N#Cc1ccc(N2CCc3c(ncnc3Nc3ccc(C(=O)NC4CCN(CC5CCN(c6ccc7c(c6)C(=O)N(C6CCC(=O)NC6=O)C7=O)CC5)CC4)c(F)n3)C2)cc1Cl (configuration not stated)
11 | 11.6 | N#Cc1ccc(N2CCc3c(ncnc3Nc3ccc(C(=O)N4CCC(CN5CCN(c6cc7c(cc6F)C(=O)N(C6CCC(=O)NC6=O)C7=O)CC5)CC4)c(F)n3)C2)cc1Cl (configuration not stated)
12 | 4.82 | CN(C1CCN(C(=O)c2ccc(Nc3ncnc4c3CCN(c3ccc(C#N)c(Cl)c3)C4)nc2F)CC1)C1CCN(c2ccc3c(c2)C(=O)N(C2CCC(=O)NC2=O)C3=O)CC1 (configuration not stated)
